Each structure is given as a SMILES string. “Also recorded” adds a separate entry of the source. Read-outs that look alike come from different tables or passages of the source.

Data set [1] deals with lung cancer xenografts derived from H460 cells. The data set can be described thus: H460 lung cancer xenografts.
Experimental: Each group included 8 mice. Tumor volume was measured once every 2 days. After 14 days, the mice were sacrificed and the tumors were removed and analyzed.
To assess whether BDA-366 induced suppression of tumor growth via apoptosis in vivo, representative samples from harvested tumor tissues were analyzed by immunohistochemistry (IHC) for active caspase 3 or TUNEL assat.
In a further data set the test system is Plasmid pUC19 DNA. The data set can be described thus: electrophoretic mobility shift assay (EMSA). The data set is classed as binding. The procedure: To test whether BDA-2 reacts with DNA as a crosslinker, electrophoretic mobility shift assay (EMSA) was performed. Cisplatin, a known DNA binding agent, was used as positive control. Plasmid pUC19 DNA was incubated with BDA-2 or cisplatin.
A general note: Mobility shift assays separate free from complexed probe on a gel.

The next data set concerns human lung cancer cells. In words: screening of cytotoxicity by sulforhodamine B (SRB) assay. The data set is classed as cell-based. The settings on record: among top 200 docked small molecules. From the text:
A library containing approximately 300,000 small molecules from the National Cancer Institute (NCI) was used to dock the structural pocket of the BH4 domain. The small molecules were ranked according to their energy scores. The top 200 small molecules were selected for screening of cytotoxicity in human lung cancer cells by sulforhodamine B (SRB) assay.
(The SRB assay estimates cell density from bound dye.)

A further data set addresses Mc1-1 (Homo sapiens, UniProt Q07820). In words: binding to other Bcl2 family members.
Where [2] appears, read: 10, 20, 30 mg/kg/d i.p., 14 days.

Sequence of Mc1-1 (Q07820 whole entry): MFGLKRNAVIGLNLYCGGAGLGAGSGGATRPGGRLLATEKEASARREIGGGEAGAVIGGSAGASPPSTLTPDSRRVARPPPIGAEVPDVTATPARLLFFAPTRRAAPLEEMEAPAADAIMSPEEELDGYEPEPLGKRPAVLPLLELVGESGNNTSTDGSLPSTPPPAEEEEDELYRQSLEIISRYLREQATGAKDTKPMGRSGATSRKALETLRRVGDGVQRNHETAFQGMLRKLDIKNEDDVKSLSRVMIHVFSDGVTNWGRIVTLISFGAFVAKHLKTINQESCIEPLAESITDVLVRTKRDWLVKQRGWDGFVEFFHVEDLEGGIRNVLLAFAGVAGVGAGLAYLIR

Take `CCN(CC)CC(O)CNc1ccc(NCC2CO2)c2c1C(=O)c1ccccc1C2=O` (centres unmarked) [BDA-366, 1-((3-(diethylamino)-2-hydroxypropyl)amino)-4-((oxiran-2-ylmethyl)amino)anthracene-9,10-dione]: the body weight entry in data set [1] (30 mg/kg) is given as “Weight loss was observed”. In addition, the “neutrophils, lymphocytes, RBC and platelets in blood” value in data set [1] (30 mg/kg) is “no decreases in neutrophils, lymphocytes, red blood cells (RBC) and platelets (PLT)”. Moreover, in data set [1] (setting [2]), the “apoptosis in tumor tissues (active caspase 3 IHC or TUNEL)” value was “dose-dependent apoptosis induction”. Further, the “tumor growth / repression of lung cancer in vivo” value in data set [1] (setting [2]) is recorded as “potently suppress lung cancer growth in vivo; also recorded: dose-dependent repression of lung cancer in vivo”; in data set [1] (10, 20, 30 mg/kg/d i.p., 14 days, listed as BDA-2) it was “represses lung cancer in vivo”. Moreover, the “histopathology of harvested normal tissues” value in data set [1] (10-30 mg/kg/d) was “no evidence of normal tissue toxicities”. Also, the “kidney (BUN) and liver (ALT and AST) function” value in data set [1] (mouse, in vivo) was “in the normal range”. The “binding to pUC19 DNA causing mobility shift” value in the data set with Plasmid pUC19 DNA is on record as “not”. The “activity against human lung cancer cells” value with human lung cancer cells is given as “most potent activity”. The “binding to Mc1-1” value is “failed to bind” on Mc1-1 and “did not bind” on Mc1-1 (listed as BDA-2).
